From paper PMC6541369, “Stereo- and regioselective hydroboration of 1-exo-methylene pyranoses: discovery of aryltriazolylmethyl C-galactopyranosides as selective galectin-1 inhibitors” (Beilstein Journal of Organic Chemistry, 2019)
“And” between values parts separate entries of the source, which are not always exact repeats. Equal entries are not always repeated. Where two headings read alike, the source gives them in different places.

Experiments:
galectin-3 [1] = biological target: T1, galectin-3 (Homo sapiens, UniProt P17931); test: competitive fluorescence polarization assay, galectin-3; format: binding; settings: galectin-3 0.2 µM, fluorescent probe 20 nM; for Kd: read-out: Dissociation constant KD ± SEM, galectin-3
T1 construct: made in house
Experimental: Galectin-1, -3, -4C (C-terminal CRD), -4N (N-terminal CRD), -7, -8C, -8N, -9C, and -9N affinities for (aryltriazolyl)methyl galactopyranosyls 1a–n were determined in a competitive fluorescence polarization titration assay [[…]]. Compounds 1a–n had millimolar or higher affinities for all galectins except for galectins-1 and -3. […] Of particular interest is the different difluorinated aryls 1e–g, which show a reversed selectivity pattern. They display twofold preference for galectin-3 (1g), but their poor affinities limit their use as effective galectin-3 inhibitors. […] Monosaccharide derivatives with somewhat higher affinity for galectin-1 are known; dissociation constants down to 62 µM and selectivity of 8 over galectin-3 [34]. However, these inhibitors are larger and carry double modifications with an anomeric thiophenyl aglycon combined with a heteroaryltriazole moiety at galactose C3 that both form affinity and selectivity-enhancing interactions with galectin-1. Unfortunately, attempts to combine the anomeric 4-fluorophenyltriazolylmethyl moiety of compound 1b with such a galactose C3-thiazolyltriazole substituent reported to enhance affinity for galectin-1 [34] failed in our hands, why other additional substituents to combine with the 4-fluorophenyltriazolylmethyl moiety of compound 1b remain to be discovered.
(§1) Human galectin-1 [36] and galectin-3 [37] were expressed and purified as earlier described. Fluorescence polarization experiments were performed on a PheraStarFS plate reader with software PHERAstar Mars version 2.10 R3 (BMG, Offenburg, Germany). Specific experimental conditions were a galectin-1 concentration of 0.5 µM together with the fluorescent probe (3,3’-dideoxy-3-[4-(fluorescein-5-ylcarbonylaminomethyl)-1H-1,2,3-triazol-1-yl]-3’-(3,5-dimethoxybenzamido)-1,1’-sulfanediyl-di-β-D-galactopyranoside) concentration of 20 nM and a galectin-3 concentration of 0.2 µM together with the fluorescent probe (3,3’-dideoxy-3-[4-(fluorescein-5-ylcarbonylaminomethyl)-1H-1,2,3-triazol-1-yl]-3’-(3,5-dimethoxybenzamido)-1,1’-sulfanediyl-di-β-D-galactopyranoside) concentration of 20 nM, respectively. […] Dissociation constants average and SEM were calculated from two to eight single point measurements showing between 20–80% inhibition.

Human galectin-1 [2] = biological target: T2, Human galectin-1 (Homo sapiens, UniProt P09382); test: competitive fluorescence polarization assay, galectin-1; format: binding; settings: for Kd: galectin-1 0.5 µM, fluorescent probe 20 nM, read-out: Dissociation constant KD ± SEM, galectin-1
T2 construct: made in house
Experimental: Galectin-1, -3, -4C (C-terminal CRD), -4N (N-terminal CRD), -7, -8C, -8N, -9C, and -9N affinities for (aryltriazolyl)methyl galactopyranosyls 1a–n were determined in a competitive fluorescence polarization titration assay [[…]].
as §1

galectin-3 [3] = biological target: T1, galectin-3; parameters: method as in PMID 15889175; settings: reference compounds; read-out: Dissociation constant KD, galectin-3; cited from earlier work
Human galectin-1 [4] = biological target: T2, Human galectin-1; parameters: method as in PMID 15889175; settings: reference compounds; read-out: Dissociation constant KD, galectin-1; cited from earlier work
[5] = ratio of galectin-3 KD to galectin-1 KD

T2 sequence (P09382 whole entry): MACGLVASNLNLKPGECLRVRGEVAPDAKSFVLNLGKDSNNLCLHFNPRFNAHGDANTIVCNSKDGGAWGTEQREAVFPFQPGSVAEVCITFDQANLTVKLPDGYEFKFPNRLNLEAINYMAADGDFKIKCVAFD
T1 sequence (P17931 whole entry): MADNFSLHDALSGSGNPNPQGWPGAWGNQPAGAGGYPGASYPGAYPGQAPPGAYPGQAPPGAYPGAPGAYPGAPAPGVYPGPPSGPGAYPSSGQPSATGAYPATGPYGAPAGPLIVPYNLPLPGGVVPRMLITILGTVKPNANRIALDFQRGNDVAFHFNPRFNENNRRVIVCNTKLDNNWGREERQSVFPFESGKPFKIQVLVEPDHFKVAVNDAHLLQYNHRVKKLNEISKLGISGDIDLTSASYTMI

SMILES | Kd (galectin-3 [1]) [µM] | Kd (Human galectin-1 [2]) [µM] | Selectivity Galectin-1/3 (Human galectin-1 [2]; [5]) | Kd (galectin-3 [3]) [µM] | Kd (Human galectin-1 [4]) [µM] | Selectivity Galectin-1/3 (Human galectin-1 [2]; reference compounds, ratio from KD values of ref 35) | Dissociation constant KD ± SEM, galectin-3 (galectin-3 [1])
OC[C@H]1O[C@H](Cn2cc(-c3ccc(F)c(F)c3)nn2)[C@H](O)[C@@H](O)[C@H]1O [1e, 1,2-Dideoxy-1-[4-(3,4-difluorophenyl)-1H-1,2,3-triazol-1-yl]-β-D-galactoheptulose] | 610 ± 160 | 860 ± 150 | 0.7 | – | – | – | –
OC[C@H]1O[C@H](Cn2cc(-c3ccc(F)cc3F)nn2)[C@H](O)[C@@H](O)[C@H]1O [1g, 1,2-Dideoxy-1-[4-(2,4-difluorophenyl)-1H-1,2,3-triazol-1-yl]-β-D-galactoheptulose] | 490 ± 55 | 1100 ± 16 | 0.4 | – | – | – | –
OC[C@H]1O[C@H](Cn2cc(-c3ccc4ccccc4c3)nn2)[C@H](O)[C@@H](O)[C@H]1O [1n, 1,2-Dideoxy-1-(4-naphth-2-yl-1H-1,2,3-triazol-1-yl)-β-D-galactoheptulose] | 1700 ± 190 | 1500 ± 290 | 1.1 | – | – | – | –
OC[C@H]1O[C@H](Cn2cc(-c3ccc(C(F)(F)F)cc3)nn2)[C@H](O)[C@@H](O)[C@H]1O [1k, 1,2-Dideoxy-1-[4-(4-trifluoromethylphenyl)-1H-1,2,3-triazol-1-yl]-β-D-galactoheptulose] | 830 ± 38 | 240 ± 61 | 3.5 | – | – | – | –
OC[C@H]1O[C@H](Cn2cc(-c3cccc4ccccc34)nn2)[C@H](O)[C@@H](O)[C@H]1O [1l, 1,2-Dideoxy-1-(4-naphth-1-yl-1H-1,2,3-triazol-1-yl)-β-D-galactoheptulose] | 470 ± 95 | 180 ± 20 | 2.6 | – | – | – | –
OC[C@H]1O[C@H](Cn2cc(-c3ccccc3F)nn2)[C@H](O)[C@@H](O)[C@H]1O [1d, 1,2-Dideoxy-1-[4-(2-fluorophenyl)-1H-1,2,3-triazol-1-yl]-β-D-galactoheptulose] | 500 ± 23 | 390 ± 38 | 1.3 | – | – | – | –
CO[C@@H]1O[C@H](CO)[C@@H](O[C@@H]2O[C@H](CO)[C@H](O)[C@H](O)[C@H]2O)[C@H](O)[C@H]1O [compound 12, methyl β-lactoside] | – | – | – | 220 | 190 | 1.2 | –
Cc1cccc(-c2cn(C[C@H]3O[C@H](CO)[C@H](O)[C@H](O)[C@H]3O)nn2)c1 [1i, 1,2-Dideoxy-1-[4-(3-methylphenyl)-1H-1,2,3-triazol-1-yl]-β-D-galactoheptulose] | > 3000 | 990 ± 23 | >3 | – | – | – | undetectable
OC[C@H]1O[C@H](Cn2cc(-c3cccc(F)c3)nn2)[C@H](O)[C@@H](O)[C@H]1O [1c, 1,2-Dideoxy-1-[4-(3-fluorophenyl)-1H-1,2,3-triazol-1-yl]-β-D-galactoheptulose] | 720 ± 64 | 1200 ± 120 | 0.6 | – | – | – | –
OC[C@H]1O[C@H](Cn2cc(-c3ccccc3)nn2)[C@H](O)[C@@H](O)[C@H]1O [1a, 1,2-Dideoxy-1-(4-phenyl-1H-1,2,3-triazol-1-yl)-β-D-galactoheptulose] | 870 ± 37 | 600 ± 48 | 1.5 | – | – | – | –
OC[C@H]1O[C@H](Cn2cc(-c3ccc(OC(F)(F)F)cc3)nn2)[C@H](O)[C@@H](O)[C@H]1O [1j, 1,2-Dideoxy-1-[4-(4-trifluoromethoxyphenyl)-1H-1,2,3-triazol-1-yl]-β-D-galactoheptulose] | 700 ± 52 | 500 ± 59 | 1.4 | – | – | – | –
OC[C@H]1O[C@H](Cn2cc(-c3ccc(F)cc3)nn2)[C@H](O)[C@@H](O)[C@H]1O [1b, 1,2-Dideoxy-1-[4-(4-fluorophenyl)-1H-1,2,3-triazol-1-yl]-β-D-galactoheptulose] | 710 ± 36 | 170 ± 2 | 4 and 4.2 | – | – | – | –
OC[C@H]1O[C@@H](Cn2cc(-c3ccc(-c4ccccc4)cc3)nn2)[C@H](O)[C@@H](O)[C@H]1O [1m, 1,2-Dideoxy-1-[4-(4-biphenyl)-1H-1,2,3-triazol-1-yl]-β-D-galactoheptulose] | 1200 ± 11 | 710 ± 12 | 1.7 | – | – | – | –
OC[C@H]1O[C@H](Cn2cc(-c3cc(F)cc(F)c3)nn2)[C@H](O)[C@@H](O)[C@H]1O [1f, 1,2-Dideoxy-1-[4-(3,5-difluorophenyl)-1H-1,2,3-triazol-1-yl]-β-D-galactoheptulose] | 790 ± 48 | 1100 ± 43 | 0.7 | – | – | – | –
Cc1ccc(-c2cn(C[C@H]3O[C@H](CO)[C@H](O)[C@H](O)[C@H]3O)nn2)cc1 [1h, 1,2-Dideoxy-1-[4-(4-methylphenyl)-1H-1,2,3-triazol-1-yl]-β-D-galactoheptulose] | > 3000 | 1000 ± 130 | >3 | – | – | – | undetectable
